Test results as given in ChEMBL document CHEMBL4130359, “Indazole-based ligands for estrogen-related receptor α as potential anti-diabetic agents” (Eur J Med Chem, 2017).
Active and inactive are the calls of the source. The rule behind the calls is not given here.

Legend:
[1] = Drug uptake in liver of Zucker rat sub-chronic fa/fa prediabetic model at 12.5 mg/kg, po qd for 11 days; assay type: ADME, organism-based; settings: read-out: Drug uptake
Rattus norvegicus [2] = assay: Effect on DBT gene expression in epididymal white adipose tissue of Zucker rat sub-chronic fa/fa prediabetic model at 10 mg/kg, po qd for 15 days by microarray analysis relative to control; assay type: functional
[3] = Cmax in Zucker rat sub-chronic fa/fa prediabetic model at 10 mg/kg, po qd measured on day 1 post dose; assay type: ADME, organism-based; parameters: dose 10 mg/kg, route oral; settings: in vivo
Rattus norvegicus [4] = assay: Antidiabetic activity in Zucker rat sub-chronic fa/fa prediabetic model assessed as serum adiponectin level at 3 mg/kg, po qd for 4 days by ELISA (reference value: 9.1%); assay type: functional
Rattus norvegicus [5] = assay: Effect on CTGF gene expression in epididymal white adipose tissue of Zucker rat sub-chronic fa/fa prediabetic model at 10 mg/kg, po qd for 15 days by microarray analysis relative to control; assay type: functional
[6] = Volume of distribution at steady state in Sprague-Dawley rat at 2 mg/kg, iv by LC-MS analysis; assay type: ADME, organism-based; settings: in vivo, read-out: Vdss
Rattus norvegicus [7] = assay: Effect on TGFB1 gene expression in epididymal white adipose tissue of Zucker rat sub-chronic fa/fa prediabetic model at 10 mg/kg, po qd for 15 days by microarray analysis relative to control; assay type: functional
Rattus norvegicus [8] = assay: Toxicity in Zucker rat sub-chronic fa/fa prediabetic model assessed as heart weight at 1 mg/kg, po qd for 31 days measured on day 32 (reference value: 1.19 +/- 0.04 g); assay type: organism-based; settings: in vivo, 744 h
[9] = AUC (0 to 24 hrs) in Zucker rat sub-chronic fa/fa prediabetic model at 1 mg/kg, po qd for 26 days measured on day 26 post last dose; assay type: ADME, organism-based; parameters: time < 24 hr, dose 1 mg/kg, route oral; settings: in vivo
Rattus norvegicus [10] = assay: Decrease in fed plasma insulin level in Zucker rat sub-chronic fa/fa prediabetic model assessed as change in plasma insulin level at 10 mg/kg, po qd for 4 days measured on day 5 relative to control; assay type: functional; parameters: scale not given: the % may be the effect or the level left
Rattus norvegicus [11] = assay: Antidiabetic activity in Zucker rat sub-chronic fa/fa prediabetic model assessed as serum adiponectin level at 1 mg/kg, po qd for 4 days by ELISA (reference value: 9.1%); assay type: functional
Homo sapiens = species on record: Homo sapiens; assay: Inhibition of picrotoxin binding to chloride channel (unknown origin) at 10 uM relative to control
[12] = Tmax in Sprague-Dawley rat at 10 mg/kg administered via oral gavage by LC-MS analysis; assay type: ADME, organism-based; settings: in vivo
Rattus norvegicus [13] = assay: Effect on CD3D gene expression in epididymal white adipose tissue of Zucker rat sub-chronic fa/fa prediabetic model at 10 mg/kg, po qd for 15 days by microarray analysis relative to control; assay type: functional
Rattus norvegicus [14] = assay: Toxicity in Zucker rat sub-chronic fa/fa prediabetic model assessed as heart weight at 50 mg/kg, po qd for 31 days measured on day 32 (reference value: 1.19 +/- 0.04 g); assay type: organism-based; settings: in vivo, 744 h
Rattus norvegicus [15] = assay: Effect on PFKFB1 gene expression in epididymal white adipose tissue of Zucker rat sub-chronic fa/fa prediabetic model at 10 mg/kg, po qd for 15 days by microarray analysis relative to control; assay type: functional
Rattus norvegicus [16] = assay: Toxicity in Zucker rat sub-chronic fa/fa prediabetic model assessed as serum ALT level at 50 mg/kg, po qd for 31 days measured on day 32 (reference value: 151 +/- 23 U/L); assay type: organism-based; settings: in vivo, 744 h
Rattus norvegicus [17] = assay: Toxicity in Zucker rat sub-chronic fa/fa prediabetic model assessed as insulin level per gram pancreas at 1 mg/kg, po qd for 31 days measured on day 32 (reference value: 55.2 +/- 5.5 ug); assay type: organism-based; settings: in vivo, 744 h
[18] = Cmax in ob/ob mouse at 18 mg/kg administered via oral gavage by LC-MS analysis; assay type: ADME, organism-based; parameters: dose 18 mg/kg, route oral; settings: in vivo
[19] = Cmax in Zucker rat sub-chronic fa/fa prediabetic model at 1 mg/kg, po qd for 26 days measured on day 26 post last dose; assay type: ADME, organism-based; parameters: dose 1 mg/kg, route oral; settings: in vivo
Rattus norvegicus [20] = assay: Effect on NDUFA5 gene expression in epididymal white adipose tissue of Zucker rat sub-chronic fa/fa prediabetic model at 10 mg/kg, po qd for 15 days by microarray analysis relative to control; assay type: functional
Rattus norvegicus [21] = assay: Effect on COX6A2 gene expression in epididymal white adipose tissue of Zucker rat sub-chronic fa/fa prediabetic model at 10 mg/kg, po qd for 15 days by microarray analysis relative to control; assay type: functional
Rattus norvegicus [22] = assay: Toxicity in […] chronic ob/ob model assessed as body weight at 50 mg/kg, po qd for 28 days measured on day 28 post last dose (reference value: 47.3 +/- 1.06 g); assay type: organism-based; settings: in vivo, 672 h
[23] = molecular target: Oxysterols receptor LXR-alpha (Homo sapiens, UniProt Q13133); assay: Antagonist activity at recombinant GST-tagged human LXRalpha LBD assessed as inhibition of TO901317-induced fluorescein-labeled coactivator peptide recruitment preincubated with enzyme followed by coactivator addition by LanthaScreen TR-FRET assay
Rattus norvegicus [24] = assay: Increase in IDH3A mRNA expression in epididymal white adipose tissue of Zucker rat sub-chronic fa/fa prediabetic model at 10 mg/kg, po qd for 15 days by RT-PCR method; assay type: functional, organism-based
Rattus norvegicus [25] = assay: Antidiabetic activity in po dosed Zucker rat chronic ob/ob model assessed as reduction in blood glucose AUC (0 to 120 min) administered once daily for 31 days measured on day 28 post dose by OGTT; assay type: functional, organism-based
Rattus norvegicus [26] = assay: Toxicity in Zucker rat sub-chronic fa/fa prediabetic model assessed as change in body weight at 1 mg/kg, po qd for 29 days measured on day 1 to 29 during compound dosing (reference value: 140 +/- 7 g); assay type: organism-based; settings: in vivo, 696 h
Rattus norvegicus [27] = assay: Toxicity in Zucker rat sub-chronic fa/fa prediabetic model assessed as body weight at 50 mg/kg, po qd for 29 days measured on day 29 post last dose (reference value: 533 +/- 10 g); assay type: organism-based; settings: in vivo, 696 h
Rattus norvegicus [28] = assay: Toxicity in […] model assessed as serum cholesterol level at 10 mg/kg, po qd for 31 days measured on day 32 (reference value: 195 +/- 5.5 mg/dl); assay type: organism-based; settings: in vivo, 744 h
Rattus norvegicus [29] = assay: Effect on NDUFB9 gene expression in epididymal white adipose tissue of Zucker rat sub-chronic fa/fa prediabetic model at 10 mg/kg, po qd for 15 days by microarray analysis relative to control; assay type: functional
[30] = Half life in CD-1 mouse at 5 mg/kg, iv by LC-MS analysis; assay type: ADME, organism-based; settings: in vivo
Rattus norvegicus [31] = assay: Toxicity in […] model assessed as liver weight at 10 mg/kg, po qd for 31 days measured on day 32 (reference value: 2.77 +/- 0.16 g); assay type: organism-based; settings: in vivo, 744 h
Rattus norvegicus [32] = assay: Effect on NDUFV2 gene expression in epididymal white adipose tissue of Zucker rat sub-chronic fa/fa prediabetic model at 10 mg/kg, po qd for 15 days by microarray analysis relative to control; assay type: functional
[33] = Cmax in […] chronic ob/ob model at 50 mg/kg, po qd measured on day 1 post dose; assay type: ADME, organism-based; parameters: dose 50 mg/kg, route oral; settings: in vivo
Rattus norvegicus [34] = assay: Toxicity in Zucker rat sub-chronic fa/fa prediabetic model assessed as triglyceride level per gram liver at 3 mg/kg, po qd for 31 days measured on day 32 (reference value: 163.4 +/- 8.3 mg); assay type: organism-based; settings: in vivo, 744 h

Oxysterols receptor LXR-alpha, sequence (Q13133 whole entry, the tested form may be a part): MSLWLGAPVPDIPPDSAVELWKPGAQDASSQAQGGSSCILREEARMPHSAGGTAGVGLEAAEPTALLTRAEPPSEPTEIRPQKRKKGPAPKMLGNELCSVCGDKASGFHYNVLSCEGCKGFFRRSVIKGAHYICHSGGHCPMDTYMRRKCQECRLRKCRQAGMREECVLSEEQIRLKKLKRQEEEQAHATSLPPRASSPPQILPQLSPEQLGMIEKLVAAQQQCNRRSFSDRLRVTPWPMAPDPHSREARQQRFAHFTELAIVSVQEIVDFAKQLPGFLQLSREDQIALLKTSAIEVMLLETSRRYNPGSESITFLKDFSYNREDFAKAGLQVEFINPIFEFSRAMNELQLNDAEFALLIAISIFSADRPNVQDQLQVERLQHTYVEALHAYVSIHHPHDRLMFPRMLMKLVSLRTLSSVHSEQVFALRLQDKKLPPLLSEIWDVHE

CN1CC[C@@H](N2C(=O)S/C(=C\c3ccc4c(cnn4Cc4ccc(Cl)cc4C(F)(F)F)c3)C2=O)[C@H](F)C1
concentration at 264 h [1]: 12400 ng/g
fold change (FC) (Rattus norvegicus [2]): -1.217
Cmax [3]: 1570 ng/mL
Activity (Rattus norvegicus [4]): 11.1%
fold change (FC) (Rattus norvegicus [5]): 1.458
Vd [6]: 11.2 L/kg
fold change (FC) (Rattus norvegicus [7]): -1.47
Activity (Rattus norvegicus [8]): 1.16 g
AUC at 24 h [9]: 3200 ng·h/mL
Activity (Rattus norvegicus [10]): -67%
Activity (Rattus norvegicus [11]): 8.6%
inhibition (Homo sapiens): 50%
Tmax [12]: 1.5 h
fold change (FC) (Rattus norvegicus [13]): -1.256
Activity (Rattus norvegicus [14]): 1.19 g
fold change (FC) (Rattus norvegicus [15]): 1.634
Activity (Rattus norvegicus [16]): 104 U/L
Activity (Rattus norvegicus [17]): 72.7 µg
Cmax [18]: 829 ng/mL
Cmax [19]: 316 ng/mL
fold change (FC) (Rattus norvegicus [20]): 1.568
fold change (FC) (Rattus norvegicus [21]): 1.35
Activity (Rattus norvegicus [22]): 46.8 g
IC50 [23]: > 10 µM
Activity (Rattus norvegicus [24]): Active
Activity (Rattus norvegicus [25]): Dose-dependent effect
Activity (Rattus norvegicus [26]): 142 g
Activity (Rattus norvegicus [27]): 557 g
Activity (Rattus norvegicus [28]): 164 mg/dL
fold change (FC) (Rattus norvegicus [29]): 1.214
half-life [30]: 11.8 h
Activity (Rattus norvegicus [31]): 2.67 g
fold change (FC) (Rattus norvegicus [32]): 1.44
Cmax [33]: 2680 ng/mL
Activity (Rattus norvegicus [34]): 124.7 mg
